Laboratory results taken from PMC5606850, “Acidic C-terminal domains autoregulate the RNA chaperone Hfq” (eLife, 2017).
“Also recorded” adds a separate entry of the source.

What was measured:
Assay type in all cases: biochemical
1000 bp DNA / pUC19 DNA = test: Hfq·DNA aggregation: pelleting and protease assays; details: 3.5 µM Hfq hexamer, 15 nM 1000 bp DNA (pelleting) or 6 nM pUC19 (protease assay), 25 °C
Procedure: Figure 5. CTD and RNAs inhibit DNA binding to Hfq by obstructing the basic rim patch. (A, B) Agarose gel electrophoretic mobility shift assays of 0–3.3 μM hexamer Hfq102, Hfq102-R16A, Hfq65 or Hfq65-R16A binding to 6 nM linear pUC19 DNA ([…]) at 25°C, stained with SYBR Gold. Hfq65 forms large aggregates that fail to enter the gel (Figure 5—figure supplement 1). (C, D) Line densitometry of DNA migration in (A, B). Free pUC19 (no Hfq) is shown in light grey. Samples with increasing Hfq concentration are shown in darker shades of grey. (E, F) RNA competition. Complexes of 0.5 μM Hfq102 hexamer and 6 nM linear pUC19 (black) were challenged by 0–2 μM RNA or DNA competitor (darker shades of red). pUC19 control in the absence of Hfq is shown in light grey. Icons indicate the binding surface for each competitor. See Figure 5—figure supplement 2 for gel images. Figure 5—figure supplement 1. Hfq CTD prevents aggregation with DNA. (A) Protease assay. 3.5 µM Hfq hexamer incubated with 6 nM linear (L) plus relaxed circular (N) pUC19 DNA at 25°C, for 30 min, in 50 mM Tris-HCl pH 7.5 and 10 mM CaCl2. The samples were divided in two. […] Digestion of Hfq65 and Hfq65-R16A with Proteinase K liberates DNA from Hfq•DNA aggregates, allowing it to be detected (lanes 9 and 10). […] The small proportion of Hfq65·DNA complexes remaining in the supernatant were only detected in the gel after treatment with salt. […]

Target-A18 = test: RNA annealing kinetics (molecular beacon with Target-A18), stopped-flow fluorescence; details: 50 nM molecular beacon, 100 nM Target-A18, 0–200 nM Hfq hexamer, 30 °C
Procedure: (§1) Figure 4. Shortening the CTD increases auto-inhibition by acidic residues. (A) Observed annealing rate constants for 100 nM target RNA and 50 nM molecular beacon with 0–200 nM Hfq hexamer at 30°C, measured by stopped-flow fluorescence. Black, Hfq102; red, Hfq-sCTD; cyan, Hfq65. (B) Fluorescence anisotropy assay for RNA binding and release. In stopped-flow FRET experiments, the dsRNA is released after pairing with its complementary strand ([Panja et al., 2013]; [Santiago-Frangos et al., 2016]). […] Remaining RNA was displaced from Hfq by excess ssDNA (400 nM DNA2). The averages and standard deviations for three trials are plotted for each Hfq variant. […] (D) Annealing of 5 nM ^32P-ChiX sRNA with 30 nM chiP mRNA without Hfq, or with Hfq65, Hfq102 or Hfq-sCTD, as indicated above each lane. Samples were loaded on a native polyacrylamide gel 60 min or 20 s after the components were mixed. […] (E) Fractions of free ChiX (black), ChiX·chiP dsRNA (light grey), ChiX·Hfq·chiP ternary complex (hatched) and ChiX·Hfq binary complex (dark grey) after 4 min of annealing, as analyzed by EMSA (Figure 4—figure supplement 2). […] Annealing of 100 nM Target RNA to 50 nM beacon RNA by Hfq variants was measured by stopped flow fluorescence at 30°C in 1 × TNK buffer. […] The change in fluorescence emission intensity was normalized to the maximum fluorescence within an experiment. […]

D16-FAM·R16 = test: anisotropy time-course of D16-FAM·R16 binding, annealing and release; details: 50 nM D16-FAM, 50 nM Hfq hexamer, then 50 nM R16, TNK buffer, 30 °C, three trials
Procedure: as §1

Substance	Hfq·DNA aggregation (1000 bp DNA / pUC19 DNA)	annealing acceleration for Target-A18 compared to no Hfq (Target-A18)	release of annealed dsRNA (D16-FAM·R16) from Hfq (D16-FAM·R16)
Hfq65-R16A	more evenly distributed between pellet and supernatant fractions; also recorded: form insoluble aggregates with DNA which do not enter the gel	–	–
Hfq65: truncated E. coli Hfq variant lacking the CTD	Nearly all of the Hfq65·DNA complexes were found in the pellet fraction; also recorded: form insoluble aggregates with DNA which do not enter the gel	roughly 100 fold	a large proportion of the dsRNA remained bound to Hfq65
Hfq102: full-length E. coli Hfq	–	roughly 100 fold	most of the annealed dsRNA dissociated from Hfq102
